{"source": "patent US20090069302A1", "about": "(SMITHKLINE BEECHAM CORPORATION, priority 2006, published 2009)", "key": {"[1]": {"test_system": "GK rats", "test": "Glucose tolerance test in the chronic study in GK rats", "type": "in vivo, rat", "details": "treated versus vehicle group, in words"}, "[2]": {"target": "T1, AXOR109 (Homo sapiens, UniProt Q8TDU6)", "T1 construct": "expressed in transfected cells; host or cells: melanophore cells, transfected by electroporation", "T1 sequence (Q8TDU6 1-330)": "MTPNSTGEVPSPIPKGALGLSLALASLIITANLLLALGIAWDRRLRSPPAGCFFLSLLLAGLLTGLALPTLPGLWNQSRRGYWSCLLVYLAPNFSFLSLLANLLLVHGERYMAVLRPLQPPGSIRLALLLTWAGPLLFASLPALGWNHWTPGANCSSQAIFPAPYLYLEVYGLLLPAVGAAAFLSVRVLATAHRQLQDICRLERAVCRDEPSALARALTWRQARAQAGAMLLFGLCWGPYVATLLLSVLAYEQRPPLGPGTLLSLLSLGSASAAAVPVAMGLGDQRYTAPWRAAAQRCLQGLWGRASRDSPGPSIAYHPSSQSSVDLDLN", "test": "Human AXOR109/Melanophore Assay", "type": "cell-based", "details": "melanophore assay", "how_it_was_run": "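Readout is melanosome dispersion in melanophores electroporated with human AXOR109, in buffer containing 10 nM melatonin and 1% DMSO. Transmittance was read before and after 1 h compound exposure across 11-point 3-fold dilutions. Response was normalized to 200 nM alpha-MSH as system max, and pEC50 was obtained from a Hill fit.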"}, "[3]": {"test_system": "CD rats", "test": "Effect on GLP-1 secretion in CD rats, intracolonic injection", "type": "in vivo, rat", "details": "anesthetized CD rats, 2.5 mg intracolonic", "procedure": "Twelve ten week old (six per group) anesthetized normal CD rats were dosed with vehicle (0.5% HPMC/0.1% Tween80) or 2.5 mg Example 9 through intracolonic injection at 0 time point after a control blood sample was collected. Blood samples were collected at 5, 15, 30 and 60 minutes after dosing. Plasma active, and […] total GLP-1 were measured (ELISA kits, LINCO), and values were converted to % of controls. […] The results are listed in Tables 2a and 2b, and graphically represented in FIGS. 1a and 1b, respectively."}, "[4]": {"test_system": "GK rats", "test": "Glucose tolerance test in the chronic study in GK rats", "type": "in vivo, rat", "design": "glucose in glucose tolerance test: unit not given here", "details": "for glucose in glucose tolerance test: 0.3 mg/kg", "procedure": "(§1) The results are listed in Tables 4a and 4b, and graphically represented in FIGS. 3a and 3b, respectively.\nIn the same chronic study in GK rats as in Tables 4a and 4b, an intravenous glucose tolerance test was performed on days 1, 3, 9, and 16."}, "[5]": {"test_system": "GK rats", "test": "Sixteen day chronic intracolonic dosing study in GK rats (insulin, glucose, glucagon)", "type": "in vivo, rat", "details": "0.3 mg/kg QD intracolonic", "text": "as §1"}, "[6]": {"details": "0 min (control sample before dosing)"}}, "data": [{"smiles": "COc1ccc(S(=O)(=O)N2CCCN(S(=O)(=O)c3ccc(OC)c(OC)c3)CC2)cc1OC", "note": "[Example 9, 1,4-bis{[3,4-bis(methyloxy)phenyl]sulfonyl}hexahydro-1H-1,4-diazepine]", "values": [{"measurement": "Glucose excretion during the oral glucose tolerance test", "setting": "[1]", "value": "less in the treated group as compared to the vehicle group"}, {"measurement": "Emax", "setting": "[2]; 1 h, normalized to alpha-MSH system max", "value": "51 to 75", "unit": "%"}, {"measurement": "EC50", "setting": "[2]; AXOR109 transfected melanophores", "value": "126 to 1000", "unit": "nM"}, {"measurement": "Portal Vein Active GLP-1 Levels (% of Controls)", "setting": "[3]; [6]", "value": "100.00 % of Controls"}, {"measurement": "Portal Vein Total GLP-1 Levels (% of Controls)", "setting": "[3]; [6]", "value": "100.00 % of Controls"}, {"measurement": "Portal Vein Active GLP-1 Levels (% of Controls)", "setting": "[3]; 5 min", "value": "175.27 % of Controls"}, {"measurement": "Portal Vein Total GLP-1 Levels (% of Controls)", "setting": "[3]; 5 min", "value": "182.84 % of Controls"}, {"measurement": "Portal Vein Active GLP-1 Levels (% of Controls)", "setting": "[3]; 15 min", "value": "352.50 % of Controls"}, {"measurement": "Portal Vein Total GLP-1 Levels (% of Controls)", "setting": "[3]; 15 min", "value": "308.38 % of Controls"}, {"measurement": "Portal Vein Active GLP-1 Levels (% of Controls)", "setting": "[3]; 30 min", "value": "298.49 % of Controls"}, {"measurement": "Portal Vein Total GLP-1 Levels (% of Controls)", "setting": "[3]; 30 min", "value": "263.34 % of Controls"}, {"measurement": "Portal Vein Active GLP-1 Levels (% of Controls)", "setting": "[3]; 60 min", "value": "286.95 % of Controls"}, {"measurement": "Portal Vein Total GLP-1 Levels (% of Controls)", "setting": "[3]; 60 min", "value": "246.00 % of Controls"}, {"measurement": "active and total GLP-1 level compared to controls", "setting": "[3]; in words", "value": "higher level of active and total GLP-1"}, {"measurement": "glucose in glucose tolerance test", "setting": "[4]; day 1, 0.00 min", "value": 103.67}, {"measurement": "glucose in glucose tolerance test", "setting": "[4]; day 1, 5.00 min", "value": 257.17}, {"measurement": "glucose in glucose tolerance test", "setting": "[4]; day 1, 15.00 min", "value": 195.67}, {"measurement": "glucose in glucose tolerance test", "setting": "[4]; day 1, 30.00 min", "value": 149.50}, {"measurement": "glucose in glucose tolerance test", "setting": "[4]; day 1, 60.00 min", "value": 126.83}, {"measurement": "glucose in glucose tolerance test", "setting": "[4]; day 1, 90.00 min", "value": 158.00}, {"measurement": "glucose in glucose tolerance test", "setting": "[4]; day 1, 120.00 min", "value": 173.50}, {"measurement": "glucose in glucose tolerance test", "setting": "[4]; day 1, −20.00 min", "value": 107.17}, {"measurement": "glucose in glucose tolerance test", "setting": "[4]; day 3, 0.00 min", "value": 123.00}, {"measurement": "glucose in glucose tolerance test", "setting": "[4]; day 3, 5.00 min", "value": 307.40}, {"measurement": "glucose in glucose tolerance test", "setting": "[4]; day 3, 15.00 min", "value": 254.80}, {"measurement": "glucose in glucose tolerance test", "setting": "[4]; day 3, 30.00 min", "value": 182.20}, {"measurement": "glucose in glucose tolerance test", "setting": "[4]; day 3, 60.00 min", "value": 143.60}, {"measurement": "glucose in glucose tolerance test", "setting": "[4]; day 3, 90.00 min", "value": 140.60}, {"measurement": "glucose in glucose tolerance test", "setting": "[4]; day 3, 120.00 min", "value": 137.60}, {"measurement": "glucose in glucose tolerance test", "setting": "[4]; day 3, −20.00 min", "value": 144.20}, {"measurement": "glucose in glucose tolerance test", "setting": "[4]; day 9, 0.00 min", "value": 129.00}, {"measurement": "glucose in glucose tolerance test", "setting": "[4]; day 9, 5.00 min", "value": 278.80}, {"measurement": "glucose in glucose tolerance test", "setting": "[4]; day 9, 15.00 min", "value": 252.40}, {"measurement": "glucose in glucose tolerance test", "setting": "[4]; day 9, 30.00 min", "value": 154.80}, {"measurement": "glucose in glucose tolerance test", "setting": "[4]; day 9, 60.00 min", "value": 116.20}, {"measurement": "glucose in glucose tolerance test", "setting": "[4]; day 9, 90.00 min", "value": 115.00}, {"measurement": "glucose in glucose tolerance test", "setting": "[4]; day 9, 120.00 min", "value": 88.60}, {"measurement": "glucose in glucose tolerance test", "setting": "[4]; day 9, −20.00 min", "value": 131.00}, {"measurement": "glucose in glucose tolerance test", "setting": "[4]; day 16, 0.00 min", "value": 174.20}, {"measurement": "glucose in glucose tolerance test", "setting": "[4]; day 16, 5.00 min", "value": 275.20}, {"measurement": "glucose in glucose tolerance test", "setting": "[4]; day 16, 15.00 min", "value": 245.80}, {"measurement": "glucose in glucose tolerance test", "setting": "[4]; day 16, 30.00 min", "value": 238.80}, {"measurement": "glucose in glucose tolerance test", "setting": "[4]; day 16, 60.00 min", "value": 215.40}, {"measurement": "glucose in glucose tolerance test", "setting": "[4]; day 16, 90.00 min", "value": 217.60}, {"measurement": "glucose in glucose tolerance test", "setting": "[4]; day 16, 120.00 min", "value": 212.60}, {"measurement": "glucose in glucose tolerance test", "setting": "[4]; day 16, −20.00 min", "value": 169.00}, {"measurement": "development of hyperglycemia on day 16", "setting": "[4]; chronic study, day 16, in words", "value": "hyperglycemia had developed in rats receiving vehicle, but not in the rats treated with Example 9"}, {"measurement": "glucagon (pM)", "setting": "[5]; day 3", "value": 21.31, "unit": "pM"}, {"measurement": "glucose", "setting": "[5]; day 3", "value": 144.20, "unit": "mg/dL"}, {"measurement": "insulin (pM)", "setting": "[5]; day 3", "value": 223.24, "unit": "pM"}, {"measurement": "insulin levels", "setting": "[5]; day 3 and day 9, in words", "value": "normal insulin levels"}, {"measurement": "glucagon (pM)", "setting": "[5]; day 9", "value": 21.67, "unit": "pM"}, {"measurement": "glucose", "setting": "[5]; day 9", "value": 131.00, "unit": "mg/dL"}, {"measurement": "insulin (pM)", "setting": "[5]; day 9", "value": 240.29, "unit": "pM"}, {"measurement": "glucagon (pM)", "setting": "[5]; day 16", "value": 24.67, "unit": "pM"}, {"measurement": "glucose", "setting": "[5]; day 16", "value": 169.00, "unit": "mg/dL"}, {"measurement": "insulin (pM)", "setting": "[5]; day 16", "value": 108.09, "unit": "pM"}, {"measurement": "glucagon levels", "setting": "[5]; day 16, in words", "value": "no increase in glucagons"}, {"measurement": "glucagon (pM)", "setting": "[5]; pre dose", "value": 31.28, "unit": "pM"}, {"measurement": "glucose", "setting": "[5]; pre dose", "value": 107.17, "unit": "mg/dL"}, {"measurement": "insulin (pM)", "setting": "[5]; pre dose", "value": 269.67, "unit": "pM"}, {"measurement": "development of hyperglycemia compared with vehicle", "setting": "[5]; sixteen days, in words", "value": "no hyperglycemia had developed"}]}]}
